Measured values from patent publication US20260274895A1, “DE NOVO DESIGNED MEMBRANE-TRAVERSING AND ORALLY BIOAVAILABLE MACROCYCLES” (UNIVERSITY OF WASHINGTON, priority 2022, published 2026).
Where a SMILES comes first, the peptide text is derived from it. [ ]: non-standard residue; d: D form. NMeF = CN[C@@H](Cc1ccccc1)C(=O)O; dNMeF = CN[C@H](Cc1ccccc1)C(=O)O; NMeL = CN[C@@H](CC(C)C)C(=O)O; dNMeL = CN[C@H](CC(C)C)C(=O)O; NMeM = CN[C@@H](CCSC)C(=O)O; NMeV = CN[C@H](C(=O)O)C(C)C; Nle = CCCC[C@H](N)C(=O)O; dNMeA = CN[C@H](C)C(=O)O; Aib = CC(C)(N)C(=O)O

Settings: for PAMPA_Papp_Avg (apparent permeability): PAMPA

membrane permeability in PAMPA (in words) | PAMPA_Papp_Avg (apparent permeability) | SMILES
membrane permeable | – | CC(C)C[C@@H]1C(=O)N[C@H](C(C)C)C(=O)N[C@H](C)C(=O)N2CCC[C@@H]2C(=O)N(C)[C@H](CC(C)C)C(=O)N[C@H](C(C)C)C(=O)N[C@H](C)C(=O)N2CCC[C@@H]2C(=O)N1C [Design D8.31, ap*lvap*lv] (cyclo([dA][dP][dNMeL][dV][dA][dP][dNMeL][dV]))
– | 1.59 ×10⁻⁶ cm/s | CC[C@H](C)[C@@H]1NC(=O)[C@@H](CC(C)C)N(C)C(=O)[C@@H]2CCCN2C(=O)[C@H](C(C)C)NC(=O)C(C)(C)NC(=O)[C@H](CC(C)C)NC(=O)C(C)(C)NC(=O)[C@@H]2CCCN2C(=O)[C@H]2CCCN2C1=O [Design D9.1, pPBLBVP*lI] (cyclo([Aib]L[Aib]VP[dNMeL]I[dP]P))
– | 2.33 ×10⁻⁶ cm/s | CC[C@@H](C)[C@H]1NC(=O)[C@H](CC(C)C)NC(=O)[C@@H](CC(C)C)NC(=O)[C@H](C(C)C)NC(=O)[C@@H](Cc2ccccc2)N(C)C(=O)[C@@H]2CCCN2C(=O)[C@@H](CC(C)C)NC(=O)[C@H](CC(C)C)N(C)C(=O)[C@H]2CCCN2C1=O [Design D9.3, Lip*LlP*fVl] (cyclo(L[dI][dP][NMeL][dL]P[dNMeF]V[dL]))
– | 1.63 ×10⁻⁶ cm/s | CC[C@H](C)[C@@H]1NC(=O)[C@H](Cc2ccccc2)N(C)C(=O)[C@H](CC(C)C)N(C)C(=O)[C@@H](C(C)C)NC(=O)[C@@H](C)NC(=O)[C@@H]2CCCN2C(=O)[C@@H](CC(C)C)NC(=O)[C@@H]2CCCN2C(=O)[C@H](C)NC1=O [Design D9.6, Pav*L*FIAPl] (cyclo(AP[dL]P[dA][dV][NMeL][NMeF]I))
– | 3.51 ×10⁻⁶ cm/s | CC(C)C[C@H]1NC(=O)[C@@H]2CCCN2C(=O)[C@@H](C(C)C)NC(=O)[C@@H](C)N(C)C(=O)[C@@H](C(C)C)NC(=O)[C@@H]2CCCN2C(=O)[C@@H](Cc2ccccc2)NC(=O)[C@H](CC(C)C)N(C)C(=O)[C@@H](C(C)C)NC1=O [Design D9.9, Pv*avPlv*Lf] (cyclo([NMeL][dF]P[dV][dNMeA][dV]P[dL][dV]))
– | 0.826 ×10⁻⁶ cm/s | CC[C@H](C)[C@@H]1NC(=O)[C@@H](CC(C)C)N(C)C(=O)[C@H](CC(C)C)N(C)C(=O)[C@@H](C)N(C)C(=O)[C@@H](Cc2ccccc2)NC(=O)[C@H](C(C)C)NC(=O)[C@@H](C)NC(=O)[C@@H]2CCCN2C(=O)[C@H]2CCCN2C1=O [Design D9.10, Vf*a*L*lIpPa] (cyclo([dA]V[dF][dNMeA][NMeL][dNMeL]I[dP]P))
– | 3.37 ×10⁻⁶ cm/s | CC[C@@H](C)[C@H]1NC(=O)[C@H]2CCCN2C(=O)[C@H]([C@@H](C)CC)NC(=O)[C@H](CC(C)C)N(C)C(=O)[C@H]2CCCN2C(=O)[C@@H]2CCCN2C(=O)[C@H](Cc2ccccc2)N(C)C(=O)[C@H](Cc2ccccc2)NC(=O)[C@H]([C@@H](C)CC)NC1=O [Design D9.13, piIF*FPp*LI] (cyclo(F[NMeF]P[dP][NMeL]I[dP][dI]I))
significant permeability | – | CC(C)C[C@@H]1NC(=O)[C@H]2CCCN2C(=O)[C@@H](CC(C)C)NC(=O)[C@@H](CC(C)C)NC(=O)[C@@H](CC(C)C)N(C)C(=O)[C@H](C(C)C)NC(=O)[C@@H](C)NC(=O)[C@@H](C)N(C)C(=O)[C@@H]2CCCN2C1=O [Design D9.16, P*aaV*lllpL] (cyclo(LP[dNMeA][dA]V[dNMeL][dL][dL][dP]))
– | 1.74 ×10⁻⁶ cm/s | CC(C)C[C@@H]1C(=O)N[C@H](C(C)C)C(=O)N(C)[C@@H](C(C)C)C(=O)N2CCC[C@H]2C(=O)N2CCC[C@@H]2C(=O)N[C@@H](C)C(=O)N(C)[C@@H](Cc2ccccc2)C(=O)N(C)[C@H](CC(C)C)C(=O)N[C@H](C)C(=O)N1C [Design D9.17, pA*F*la*lv*VP] (cyclo(A[NMeF][dNMeL][dA][dNMeL][dV][NMeV]P[dP]))
– | 1.76 ×10⁻⁶ cm/s | CC(C)C[C@@H]1C(=O)N(C)[C@H](CC(C)C)C(=O)N2CCC[C@H]2C(=O)N[C@H](CC(C)C)C(=O)N2CCC[C@@H]2C(=O)N2CCC[C@@H]2C(=O)N(C)[C@H](CC(C)C)C(=O)N[C@H](Cc2ccccc2)C(=O)N[C@@H](C)C(=O)N1C [Design D9.18, A*l*lPlpp*lf] (cyclo(A[dNMeL][dNMeL]P[dL][dP][dP][dNMeL][dF]))
– | 1.28 ×10⁻⁶ cm/s | CC(C)C[C@@H]1NC(=O)[C@@H](CC(C)C)NC(=O)[C@@H](CC(C)C)N(C)C(=O)[C@@H](CC(C)C)N(C)C(=O)[C@H](C(C)C)NC(=O)[C@@H](C)N(C)C(=O)[C@@H]2CCCN2C(=O)[C@@H]2CCCN2C(=O)[C@@H](C)N(C)C1=O [Design D9.19, P*aV*l*llL*aP] (cyclo(L[dNMeA]PP[dNMeA]V[dNMeL][dNMeL][dL]))
– | 0.294 ×10⁻⁶ cm/s | CCCC[C@@H]1NC(=O)[C@H](C(C)C)NC(=O)[C@H]2CCCN2C(=O)[C@@H]2CCCN2C(=O)[C@H](C)NC(=O)[C@@H](C)N(C)C(=O)[C@@H](CC(C)C)N(C)C(=O)[C@@H](C(C)C)NC(=O)[C@@H]2CCCN2C1=O [Design D9.21, APpVMPv*l*a] (cyclo(AP[dP]V[Nle]P[dV][dNMeL][dNMeA]))
– | 0.189 ×10⁻⁶ cm/s | CC(C)C[C@@H]1NC(=O)[C@@H]2CCCN2C(=O)[C@H]2CCCN2C(=O)[C@@H](C)N(C)C(=O)[C@@H](CC(C)C)N(C)C(=O)[C@H](C(C)C)NC(=O)[C@@H](C)N(C)C(=O)[C@H]2CCCN2C(=O)[C@@H]2CCCN2C1=O [Design D9.22, p*aV*l*apPLP] (cyclo(LP[dP][dNMeA]V[dNMeL][dNMeA][dP]P))
– | 0.141 ×10⁻⁶ cm/s | CC[C@@H](C)[C@H]1NC(=O)[C@@H](CC(C)C)NC(=O)[C@@H]2CCCN2C(=O)[C@H]2CCCN2C(=O)[C@@H](C(C)C)NC(=O)[C@H](C)NC(=O)[C@@H]2CCCN2C(=O)[C@@H]([C@H](C)CC)NC(=O)[C@@H](C)N(C)C1=O [Design D9.23, i*aiPAVpPl] (cyclo([dL][dI][dNMeA][dI]PA[dV][dP]P))
– | 0.0869 ×10⁻⁶ cm/s | CSCC[C@H]1C(=O)N(C)[C@H](C)C(=O)N[C@H](CC(C)C)C(=O)N2CCC[C@@H]2C(=O)N2CCC[C@H]2C(=O)N[C@@H](CC(C)C)C(=O)N2CCC[C@H]2C(=O)N2CCC[C@@H]2C(=O)N[C@H](C(C)C)C(=O)N1C [Design D9.24, pv*M*alpPLP] (cyclo(LP[dP][dV][NMeM][dNMeA][dL][dP]P))
– | 0.24 ×10⁻⁶ cm/s | CC(C)C[C@@H]1NC(=O)[C@H](Cc2ccccc2)N(C)C(=O)[C@H]2CCCN2C(=O)[C@@H](CC(C)C)NC(=O)[C@@H](CC(C)C)NC(=O)[C@H](C)NC(=O)[C@H]2CCCN2C(=O)[C@@H]2CCCN2C(=O)[C@@H](C(C)C)NC1=O [Design D9.32, pAllp*FLvP] (cyclo(A[dL][dL][dP][NMeF]L[dV]P[dP]))
– | 0.317 ×10⁻⁶ cm/s | CC[C@H](C)[C@@H]1NC(=O)CNC(=O)[C@@H]2CCCN2C(=O)[C@H]2CCCN2C(=O)[C@H]([C@@H](C)CC)NC(=O)[C@@H](C)N(C)C(=O)[C@@H]2CCCN2C(=O)[C@H](C(C)C)NC(=O)[C@@H](CC(C)C)NC1=O [Design D9.33, pPGIlVP*aI] (cyclo(GI[dL]VP[dNMeA]I[dP]P))
– | 0.238 ×10⁻⁶ cm/s | CCCC[C@@H]1NC(=O)[C@H]2CCCN2C(=O)[C@H](C(C)C)NC(=O)[C@@H](CC(C)C)N(C)C(=O)[C@H](Cc2ccccc2)NC(=O)[C@H](CC(C)C)NC(=O)[C@@H](CC(C)C)N(C)C(=O)[C@@H]2CCCN2C(=O)[C@@H](CC(C)C)NC1=O [Design D9.40, pMlP*lLF*lV] (cyclo(F[dNMeL]V[dP][Nle][dL]P[dNMeL]L))
